Patent publication US20220081412A1, “QUINOLINYL-PYRAZINE-CARBOXAMIDE COMPOUNDS AND USES THEREOF” (The Regents of the University of Michigan, priority 2018, published 2022)

Test system: NCI60 cell lines
Assay: NCI60 cell line panel
Format: cell-based, human
Procedure: The Developmental Therapeutics Program (DTP) of NCI has evaluated more than 100,000 pure compounds and more than 34,000 crude extracts against the panel of human tumor cell lines. The resultant data are analyzed using a program called COMPARE, that rank the entire database of tested compounds in the order of the similarity of the responses. […] Thus, the NCI60 databases is highly useful to the cancer research community. Further experiments were conducted that tested some of the active compounds in a panel of NCI60 cell line to relate our compounds with some known inhibitors to have an idea of possible mechanism of action.
In order to understand the selectivity of these compounds in different cancer types, some of them were tested against a panel of 60 cell lines (Table XXXIX).

How did the “GIPRCNT: % Growth inhibition” value (Breast Cancer, BT-549) turn out when `O=C(Nc1cc(F)cc2cccnc12)c1cnc(N2CCNCC2)cn1` [J44, N-(6-fluoroquinolin-8-yl)-5-(piperazin-1-yl)pyrazine-2-carboxamide] was run?
Its value is 82.22%.

What about the “GIPRCNT: % Growth inhibition” value (Breast Cancer, HS 578T) of the same molecule?
Its value is 71.77%.

And the “GIPRCNT: % Growth inhibition” value (Breast Cancer, MCF7)?
The value was 75.22%.

And the “GIPRCNT: % Growth inhibition” value (Breast Cancer, MDA-MB-231/ATCC)?
Its value is 10.16%.

And the “GIPRCNT: % Growth inhibition” value (Breast Cancer, MDA-MB-468)?
The value was −5.124%.

What about the “GIPRCNT: % Growth inhibition” value (Breast Cancer, T-47D) of the same molecule?
The value was 18.05%.

And the “GIPRCNT: % Growth inhibition” value (CNS Cancer, SF-268)?
Its value is 77.45%.

And the “GIPRCNT: % Growth inhibition” value (CNS Cancer, SF-295)?
Its value is 89.3%.

What about the “GIPRCNT: % Growth inhibition” value (CNS Cancer, SF-539) of the same molecule?
Its value is 85.5%.

And the “GIPRCNT: % Growth inhibition” value (CNS Cancer, SNB-19)?
Its value is 87.74%.

What about the “GIPRCNT: % Growth inhibition” value (CNS Cancer, SNB-75) of the same molecule?
The value was 82.71%.

What about the “GIPRCNT: % Growth inhibition” value (CNS Cancer, U251) of the same molecule?
Its value is 63.6%.

And the “GIPRCNT: % Growth inhibition” value (Colon Cancer, COLO 205)?
Its value is 13.9%.

What about the “GIPRCNT: % Growth inhibition” value (Colon Cancer, HCC-2998) of the same molecule?
The value was 85.58%.

And the “GIPRCNT: % Growth inhibition” value (Colon Cancer, HCT-15)?
Its value is 40.52%.

What about the “GIPRCNT: % Growth inhibition” value (Colon Cancer, HCT-116) of the same molecule?
Its value is 11%.

And the “GIPRCNT: % Growth inhibition” value (Colon Cancer, HT29)?
Its value is 36.78%.

And the “GIPRCNT: % Growth inhibition” value (Colon Cancer, KM12)?
Its value is 81.24%.

And the “GIPRCNT: % Growth inhibition” value (Colon Cancer, SW-620)?
The value was 40.94%.

And the “GIPRCNT: % Growth inhibition” value (Leukemia, CCRF-CEM)?
Its value is 26.31%.

And the “GIPRCNT: % Growth inhibition” value (Leukemia, HL-60(TB))?
Its value is 77.07%.

And the “GIPRCNT: % Growth inhibition” value (Leukemia, K-562)?
Its value is 19.84%.

What about the “GIPRCNT: % Growth inhibition” value (Leukemia, MOLT-4) of the same molecule?
The value was 24.48%.

And the “GIPRCNT: % Growth inhibition” value (Leukemia, RPMI-8226)?
Its value is 93.13%.

What about the “GIPRCNT: % Growth inhibition” value (Leukemia, SR) of the same molecule?
Its value is 29.46%.

What about the “GIPRCNT: % Growth inhibition” value (Melanoma, LOX IMVI) of the same molecule?
The value was 65.76%.

And the “GIPRCNT: % Growth inhibition” value (Melanoma, M14)?
The value was 86.06%.

And the “GIPRCNT: % Growth inhibition” value (Melanoma, MALME-3M)?
The value was 59.5595%.

And the “GIPRCNT: % Growth inhibition” value (Melanoma, MDA-MB-435)?
Its value is 77.28%.

What about the “GIPRCNT: % Growth inhibition” value (Melanoma, SK-MEL-2) of the same molecule?
Its value is 104.1313%.

What about the “GIPRCNT: % Growth inhibition” value (Melanoma, SK-MEL-5) of the same molecule?
The value was 97.38%.

What about the “GIPRCNT: % Growth inhibition” value (Melanoma, UACC-62) of the same molecule?
The value was 88.004%.

What about the “GIPRCNT: % Growth inhibition” value (Melanoma, UACC-257) of the same molecule?
Its value is 91.12%.

What about the “GIPRCNT: % Growth inhibition” value (Non-Small Cell Lung Cancer, A549/ATCC) of the same molecule?
The value was 88.1%.

What about the “GIPRCNT: % Growth inhibition” value (Non-Small Cell Lung Cancer, EKVX) of the same molecule?
The value was 82.71%.

What about the “GIPRCNT: % Growth inhibition” value (Non-Small Cell Lung Cancer, HOP-62) of the same molecule?
The value was 85.24%.

What about the “GIPRCNT: % Growth inhibition” value (Non-Small Cell Lung Cancer, HOP-92) of the same molecule?
Its value is 49.09%.

What about the “GIPRCNT: % Growth inhibition” value (Non-Small Cell Lung Cancer, NCI-H23) of the same molecule?
The value was 83.43%.

And the “GIPRCNT: % Growth inhibition” value (Non-Small Cell Lung Cancer, NCI-H226)?
Its value is 100.3613%.

And the “GIPRCNT: % Growth inhibition” value (Non-Small Cell Lung Cancer, NCI-H322M)?
The value was 69.29%.

And the “GIPRCNT: % Growth inhibition” value (Non-Small Cell Lung Cancer, NCI-H460)?
Its value is 80.62%.

And the “GIPRCNT: % Growth inhibition” value (Non-Small Cell Lung Cancer, NCI-H522)?
Its value is 54.48%.

And the “GIPRCNT: % Growth inhibition” value (Ovarian Cancer, IGROV1)?
Its value is 100.6006%.

What about the “GIPRCNT: % Growth inhibition” value (Ovarian Cancer, NCI/ADR-RES) of the same molecule?
Its value is 72.41%.

And the “GIPRCNT: % Growth inhibition” value (Ovarian Cancer, OVCAR-3)?
The value was 43.52%.

What about the “GIPRCNT: % Growth inhibition” value (Ovarian Cancer, OVCAR-4) of the same molecule?
Its value is 6.04%.

What about the “GIPRCNT: % Growth inhibition” value (Ovarian Cancer, OVCAR-5) of the same molecule?
The value was 11.16%.

What about the “GIPRCNT: % Growth inhibition” value (Ovarian Cancer, OVCAR-8) of the same molecule?
Its value is 83.3637%.

What about the “GIPRCNT: % Growth inhibition” value (Ovarian Cancer, SK-OV-3) of the same molecule?
Its value is 87.6273%.

What about the “GIPRCNT: % Growth inhibition” value (Prostate Cancer, DU-145) of the same molecule?
Its value is 63.01%.

What about the “GIPRCNT: % Growth inhibition” value (Prostate Cancer, PC-3) of the same molecule?
Its value is 29.0295%.

And the “GIPRCNT: % Growth inhibition” value (Renal Cancer, 786-0)?
The value was 100.1067%.

And the “GIPRCNT: % Growth inhibition” value (Renal Cancer, A498)?
Its value is 89.1%.

What about the “GIPRCNT: % Growth inhibition” value (Renal Cancer, ACHN) of the same molecule?
Its value is 88.67%.

And the “GIPRCNT: % Growth inhibition” value (Renal Cancer, CAKI-1)?
Its value is 28.3672%.

What about the “GIPRCNT: % Growth inhibition” value (Renal Cancer, RXF 393) of the same molecule?
The value was 52.45%.

What about the “GIPRCNT: % Growth inhibition” value (Renal Cancer, SN12C) of the same molecule?
Its value is 54.07%.

And the “GIPRCNT: % Growth inhibition” value (Renal Cancer, TK-10)?
Its value is 74.98%.

What about the “GIPRCNT: % Growth inhibition” value (Renal Cancer, UO-31) of the same molecule?
Its value is 66.57%.
